Results: BigSolDB 2.1

CS(=O)(=O)OCCCCOS(C)(=O)=O
solubility (mole fraction)
Settings | 278.15 K | 283.15 K | 288.15 K | 293.15 K | 298.15 K | 303.15 K | 308.15 K | 313.15 K | 318.15 K | 323.15 K
in 2-butoxyethanol | 0.000161 | 0.000208 | 0.000261 | 0.000332 | 0.000417 | 0.000522 | 0.00066 | 0.000811 | 0.00102 | 0.00124
in 2-ethoxyethanol | 0.000166 | 0.000255 | 0.000389 | 0.000587 | 0.000857 | 0.00128 | 0.00179 | 0.00259 | 0.00367 | 0.00511
in 2-methoxyethanol | 0.000446 | 0.000675 | 0.00104 | 0.00149 | 0.0022 | 0.00311 | 0.00438 | 0.00609 | 0.0085 | 0.0118
in 2-propoxyethanol | 0.000168 | 0.000221 | 0.00031 | 0.000398 | 0.00053 | 0.000693 | 0.000905 | 0.00118 | 0.00155 | 0.00196
in DMF | 0.0116 | 0.0151 | 0.0194 | 0.0248 | 0.0317 | 0.0397 | 0.0495 | 0.0611 | 0.076 | 0.0929
in DMSO | – | – | – | – | 0.0367 | 0.0459 | 0.0567 | 0.0695 | 0.0851 | 0.103
in NMP | 0.0172 | 0.0215 | 0.0266 | 0.0328 | 0.0401 | 0.0487 | 0.059 | 0.0713 | 0.0853 | 0.102
in ethanol | 1.55e-05 | 2.49e-05 | 3.95e-05 | 6.08e-05 | 9.34e-05 | 0.000142 | 0.000211 | 0.000315 | 0.00046 | 0.000655
in ethyl acetate | 0.000385 | 0.000575 | 0.00081 | 0.00112 | 0.0016 | 0.00209 | 0.00287 | 0.0038 | 0.00525 | 0.00705
in methanol | 4.32e-05 | 6.97e-05 | 0.000107 | 0.000167 | 0.000251 | 0.000379 | 0.000555 | 0.000813 | 0.00119 | 0.00169
in methyl acetate | 0.000892 | 0.00109 | 0.00179 | 0.00248 | 0.00323 | 0.0045 | 0.00592 | 0.008 | 0.0107 | 0.0145
in n-butanol | 6.8e-06 | 1.09e-05 | 1.72e-05 | 2.66e-05 | 4.22e-05 | 6.35e-05 | 9.25e-05 | 0.000135 | 0.000191 | 0.000276
in n-butyl acetate | 0.000209 | 0.000289 | 0.000402 | 0.000549 | 0.000785 | 0.000962 | 0.00122 | 0.00175 | 0.00218 | 0.00281
in n-propanol | 4.5e-06 | 8e-06 | 1.43e-05 | 2.4e-05 | 4.05e-05 | 6.68e-05 | 0.000107 | 0.000173 | 0.000277 | 0.000444
in n-propyl acetate | 0.00016 | 0.000298 | 0.000468 | 0.000649 | 0.00101 | 0.00137 | 0.00195 | 0.00272 | 0.00386 | 0.00531
